Test results as given in the NIST ThermoML archive (doi:10.1016/j.jct.2010.04.020).
Numbers after ± are expanded uncertainties.

Experiments:
[1] = for mass density: 101.33 kPa, Liquid, Vibrating tube method; for Triple point temperature: Crystal
[2] = Molar enthalpy of transition or fusion; settings: Crystal; DSC

CCCC[n+]1cccc2ccccc21.O=S(=O)([N-]S(=O)(=O)C(F)(F)F)C(F)(F)F [1-butylquinolinium bis((trifluoromethyl)sulfonyl)amide]
[1]
Settings	Triple point temperature [K]	mass density [kg/m3]
333.15 K	–	1416.26 ± 6.9
343.15 K	–	1407.38 ± 6.8
353.15 K	–	1398.52 ± 6.8
363.15 K	–	1389.69 ± 6.7
DTA	329.12 ± 0.5	–
visual observation	329.62 ± 1.1	–

Settings	Molar enthalpy of transition or fusion [kcal/mol]
[2]	10.5 ± 0.287
